pKi: −log10 of the molar value. Several values for one entry are separate records, joined by “and”; a condition that tells them apart may be missing. Equal values may be shown once. Read-outs that look alike come from different tables or passages of the source.
Columns and labels:
[1] = assay type: in vivo, human; conditions: for AUC(0–inf), Ratio (%) of Geometric LS Means: all profiles with estimable elimination rates; for CL renal: plasma and urine, CLr; for Vd/F: Vz/F
Safety and tolerability = assay type: in vivo, human
[2] = Allometric PK scaling of CLTOT to human
[3] = Semiphysiological integrated PK/ADME model; parameters: species or system human; conditions: for clearance: oral
[4] = humans; single 300 mg radiolabeled dose; ref data on file at Furiex; cited from earlier work
[5] = in vitro or in vivo, except slow formation of a glucuronide found in human urine after 1,000 mg oral dose; ref data on file at Furiex; cited from earlier work
[6] = ref data on file at Furiex; cited from earlier work
Caco2 cell-line = conditions: ref data on file at Furiex; cited from earlier work
OAT1 [7] = conditions: in vitro; ref data on file at Furiex; cited from earlier work
OCT1 [8] = conditions: in vitro; ref data on file at Furiex; cited from earlier work
OCT2 [9] = conditions: in vitro; ref data on file at Furiex; cited from earlier work
OATP1B3 [10] = conditions: in vitro; ref data on file at Furiex; cited from earlier work
P-gp = conditions: in vitro; ref data on file at Furiex; cited from earlier work
BCRP [11] = conditions: in vitro; ref data on file at Furiex; cited from earlier work
MRP2 [12] = conditions: in vitro; ref data on file at Furiex; cited from earlier work
BCRP [13] = conditions: in vitro; ref data on file at Furiex; cited from earlier work; remark: listed apart in the source
BSEP = conditions: in vitro; ref data on file at Furiex; cited from earlier work
MRP2 [14] = conditions: in vitro; ref data on file at Furiex; cited from earlier work; remark: listed apart in the source
OCT1 [15] = conditions: in vitro; ref data on file at Furiex; cited from earlier work; remark: listed apart in the source
OCT2 [16] = conditions: in vitro; ref data on file at Furiex; cited from earlier work; remark: listed apart in the source
OAT1 [17] = conditions: in vitro; ref data on file at Furiex; cited from earlier work; remark: listed apart in the source
OAT3 = conditions: in vitro; ref data on file at Furiex; cited from earlier work
OATP1B3 [18] = conditions: in vitro; ref data on file at Furiex; cited from earlier work; remark: listed apart in the source
CYP-450s = conditions: in vitro; ref data on file at Furiex; cited from earlier work
[19] = Rat; IV 10 mg/kg; ref Furiex Studies DD7393, FK10138, FK10141, and FK10142; cited from earlier work
[20] = Cynos; IV 10 mg/kg; ref Furiex Studies DD7393, FK10138, FK10141, and FK10142; cited from earlier work
[21] = Rhesus; IV 3.2 mg/kg; ref Furiex Studies DD7393, FK10138, FK10141, and FK10142; cited from earlier work
[22] = Dog; IV 2 mg/kg; ref Furiex Studies DD7393, FK10138, FK10141, and FK10142; cited from earlier work
[23] = plasma protein binding; model input, source not stated; cited from earlier work
MRP2 [24] = conditions: read-out: Ki for MRP2; cited from earlier work
[25] = both, human, plasma, oral, eluxadoline 100 mg plus cyclosporine 600 mg, arithmetic mean (CV), n = 19
[26] = both, human, plasma, oral, eluxadoline 100 mg plus probenecid 500 mg, arithmetic mean (CV), n = 20
[27] = coadministered with probenecid vs eluxadoline alone
[28] = human, reference case without inhibitor, estimated
[29] = in the presence of cyclosporine

## COc1ccc(CN(C(=O)[C@@H](N)Cc2c(C)cc(C(N)=O)cc2C)[C@@H](C)c2ncc(-c3ccccc3)[nH]2)cc1C(=O)O [eluxadoline]
[1]; B/A: with cyclosporine 600 mg vs eluxadoline alone
  Cmax, Ratio (%) of Geometric LS Means: 6.18%
[1]; B/A: with cyclosporine vs alone
  AUC(0–inf), Ratio (%) of Geometric LS Means: 4.25%
[1]; C/A: with probenecid 500 mg vs eluxadoline alone
  Cmax, Ratio (%) of Geometric LS Means: 1.31%
[1]; C/A: with probenecid vs alone
  AUC(0–inf), Ratio (%) of Geometric LS Means: 1.48%
[1]; both, human, oral, eluxadoline 100 mg plus cyclosporine 600 mg, arithmetic mean (CV)
  CL renal: 96.7 mL/min
[1]; both, human, oral, eluxadoline 100 mg plus probenecid 500 mg, arithmetic mean (CV)
  CL renal: 61.7 mL/min
[1]; both, human, plasma, oral, 100 mg
  Tmax: 2.1 h
[1]; both, human, plasma, oral, 100 mg, Geometric LS Means, Treatment A, all profiles with estimable elimination rates (N 20)
  AUC(0-inf): 14.7 ng·h/mL
[1]; both, human, plasma, oral, 100 mg, Geometric LS Means, Treatment A, only subjects with estimable elimination rates for all 3 treatments (N 7)
  AUC(0-inf): 15.7 ng·h/mL
[1]; both, human, plasma, oral, Geometric LS Means, Treatment B (+ cyclosporine 600 mg), all profiles with estimable elimination rates (N 19)
  AUC(0-inf): 62.6 ng·h/mL
[1]; both, human, plasma, oral, Geometric LS Means, Treatment B (+ cyclosporine 600 mg), only subjects with estimable elimination rates for all 3 treatments (N 7)
  AUC(0-inf): 79.9 ng·h/mL
[1]; both, human, plasma, oral, Geometric LS Means, Treatment C (+ probenecid 500 mg), all profiles with estimable elimination rates (N 20)
  AUC(0-inf): 21.8 ng·h/mL
[1]; both, human, plasma, oral, Geometric LS Means, Treatment C (+ probenecid 500 mg), only subjects with estimable elimination rates for all 3 treatments (N 7)
  AUC(0-inf): 20.4 ng·h/mL
[1]; [25]
  AUC(0-inf): 75.3 ng·h/mL
  Vd/F: 20700 L
[1]; [26]
  AUC(0-inf): 23 ng·h/mL
  Vd/F: 37100 L
[1]; both, human, plasma, oral, eluxadoline 100 mg plus cyclosporine 600 mg, arithmetic mean (CV), N = 30
  Cmax: 20.9 ng/mL
[1]; both, human, plasma, oral, eluxadoline 100 mg plus probenecid 500 mg, arithmetic mean (CV), N = 29
  Cmax: 3.6 ng/mL
[1]; both, human, plasma, oral, t1/2, eluxadoline 100 mg plus cyclosporine 600 mg, arithmetic mean (CV), n = 19
  half-life: 7.4 h
[1]; both, human, plasma, oral, t1/2, eluxadoline 100 mg plus probenecid 500 mg, arithmetic mean (CV), n = 20
  half-life: 5.1 h
[1]; by cyclosporine
  effect on renal clearance (CLren) of eluxadoline: little effect
[1]; by probenecid
  reduction of renal clearance (CLren): ~50%
[1]; coadministered with cyclosporine vs alone, subjects with estimable elimination rates for all 3 treatments
  increase in AUC(0–inf), geometric mean ratio: 5.1 fold
[1]; coadministered with cyclosporine vs eluxadoline alone
  increase in peak exposure (Cmax): 6.2 fold
[1]; [27]
  increase in peak exposure (Cmax): 1.3 fold and 1.31 fold
  increase in systemic/total exposure [AUC(0–inf)]: 1.30 fold and 1.3 fold
[1]; eluxadoline 100 mg alone
  CLren, mean (CV%): 116 (20%) mL/min and 116 mL/min
[1]; eluxadoline 100 mg alone, arithmetic mean (CV)
  %Fe(0–72), cumulative urinary excretion over 72 hours as fraction of the dose: 0.12%
[1]; eluxadoline 100 mg alone, arithmetic mean (CV), listed as Eluxadoline
  %Fe(0–72), cumulative urinary excretion over 72 hours as fraction of the dose: 0.12 (52) %
[1]; eluxadoline 100 mg alone, arithmetic mean (CV), n = 20
  CL/F: 7550 (54) L/h
[1]; eluxadoline 100 mg plus cyclosporine 600 mg, arithmetic mean (CV)
  %Fe(0–72), cumulative urinary excretion over 72 hours as fraction of the dose: 0.46%
[1]; eluxadoline 100 mg plus cyclosporine 600 mg, arithmetic mean (CV), n = 19
  CL/F: 1943 (69) L/h
[1]; eluxadoline 100 mg plus probenecid 500 mg, arithmetic mean (CV)
  %Fe(0–72), cumulative urinary excretion over 72 hours as fraction of the dose: 0.08%
[1]; eluxadoline 100 mg plus probenecid 500 mg, arithmetic mean (CV), listed as Eluxadoline
  %Fe(0–72), cumulative urinary excretion over 72 hours as fraction of the dose: 0.08 (39) %
[1]; eluxadoline 100 mg plus probenecid 500 mg, arithmetic mean (CV), n = 20
  CL/F: 5645 (53) L/h
[1]; eluxadoline 100 mg plus probenecid 500 mg, median (minimum, maximum)
  Tmax: 2.5 (0.25, 6.0) hours
[1]; in the presence of cyclosporine 600 mg
  CLren, mean (CV%): 97 (19%) mL/min and 97 mL/min
[1]; in the presence of probenecid 500 mg
  CLren, mean (CV%): 62 (25%) mL/min and 62 mL/min
[1]; with or without cyclosporine and probenecid
  fraction of the eluxadoline dose excreted in urine unchanged (%Fe): less than 1%
Safety and tolerability; after eluxadoline alone
  nausea: not reported
Safety and tolerability; after eluxadoline alone (1 subject)
  subjects reporting gastrointestinal AEs: 3%
Safety and tolerability; after eluxadoline alone (2 subjects)
  subjects reporting AEs: 7%
Safety and tolerability; after eluxadoline combined with cyclosporine (3 subjects)
  subjects reporting nausea: 10.0%
Safety and tolerability; after eluxadoline combined with probenecid (2 subjects)
  subjects reporting gastrointestinal AEs: 7%
Safety and tolerability; after eluxadoline in combination with cyclosporine (4 subjects)
  subjects reporting gastrointestinal AEs: 13%
Safety and tolerability; after eluxadoline in combination with cyclosporine (6 subjects)
  subjects reporting AEs: 20%
Safety and tolerability; after eluxadoline with probenecid (1 subject)
  subjects reporting nausea: 3%
[2]
  clearance: 12.6 mL/min/kg and 949 mL/min
[3]; eluxadoline alone
  PK-ADME-model-predicted AUC(0–inf): 17.8 ng·h/mL
[3]; human
  renal excretion as share of overall elimination: 12%
[3]; human, plasma, 200 mg, biliary clearance (CLbil), without inhibitor, estimated
  clearance: 832 mL/min
[3]; human, plasma, 200 mg, net tubular secretion clearance CLTS, without inhibitor, estimated
  clearance: 459 mL/min
[3]; human, plasma, po, 200 mg
  bioavailability: 1.02%
[3]; [28]
  FGI (extent of GI absorption/GI permeability): 2.3%
  hepatic extraction ratio (ERhep): 55.8%
[3]; human, without inhibitor, estimated
  intrinsic biliary CLint: 9,370 mL/min
[3]; [29]
  CLbil: 296 mL/min
  Foral: 1.82%
  reduction of CLTS: 24%
  reduction of biliary CLint: 71%
[3]; in the presence of probenecid
  CLbil: 750 mL/min
  Foral: 1.15%
  reduction of CLTS: 52%
  reduction of biliary CLint: 21%
[3]; with cyclosporine
  PK-ADME-model-predicted AUC(0–inf): 78.3 ng·h/mL
  model-predicted CLren: 92 mL/min
[3]; with probenecid
  PK-ADME-model-predicted AUC(0–inf): 23.6 ng·h/mL
  model-predicted CLren: 62 mL/min
[4]
  circulating metabolites: no circulating metabolites were detected
[5]
  hepatic drug metabolism: absence of hepatic drug metabolism
[6]
  GI solubility: high
Caco2 cell-line
  Caco2 cell-line permeability: poor
OAT1 [7]
  transport by OAT1: not to be transported
OCT1 [8]
  transport by OCT1: not to be transported
OCT2 [9]
  transport by OCT2: not to be transported
OATP1B3 [10]
  transport by OATP1B3: not to be transported
P-gp
  transport by P-gp: not to be transported
BCRP [11]
  transport by BCRP: not to be transported
MRP2 [12]
  MRP2-dependent vesicular accumulation: substrate of MRP2
BCRP [13]
  inhibition of BCRP-mediated transport of probe substrates: did not inhibit
BSEP
  inhibition of BSEP-mediated transport of probe substrates: did not inhibit
MRP2 [14]
  inhibition of MRP2-mediated transport of probe substrates: did not inhibit
OCT1 [15]
  inhibition of OCT1-mediated transport of probe substrates: did not inhibit
OCT2 [16]
  inhibition of OCT2-mediated transport of probe substrates: did not inhibit
OAT1 [17]
  inhibition of OAT1-mediated transport of probe substrates: did not inhibit
OAT3
  inhibition of OAT3-mediated transport of probe substrates: did not inhibit
OATP1B3 [18]
  inhibition of OATP1B3-mediated transport of probe substrates: did not inhibit
CYP-450s
  inhibition or induction of CYP-450s: no inhibition or induction
[19]
  CLtot: 44.4 mL/min/kg
  t½: 0.8 h
[20]
  CLtot: 18.54 mL/min/kg
  t½: 3.73 h
[21]
  CLtot: 28.5 mL/min/kg
  t½: 0.65 h
[22]
  CLtot: 19.92 mL/min/kg
  t½: 0.75 h
[23]
  fu (unbound fraction of drug in plasma): 19%

## CCCN(CCC)S(=O)(=O)c1ccc(C(=O)O)cc1 [probenecid]
MRP2 [24]
  pKi: 4.35
